Here are results for 2 compounds from US9345723B2, “Rapid formation of chitosan sponges using guanosine 5′-diphosphate: injectable scaffolds for tissue regeneration and drug delivery” (THE ROYAL INSTITUTION FOR THE ADVANCEMENT OF …, priority 2012, dated 2016).

Data set [1] relates to 3T3 fibroblasts. Nature of the data set: Cytotoxicity of GDP and TPP, MTT assay. Type of data set: cell-based. The following applies: concentrations higher than 5 mM, 24 hours of culture. Here is the method:
FIG. 3 illustrates the comparison of the cytotoxicity of GDP and TPP at different concentrations; FIG. 3A: light microscopy images of 3T3 fibroblasts with different concentrations of GDP and TPP added to the culture media after 24 hours; FIG. 3B: Quantitative analysis, using MTT assay, of the cytotoxicity of TPP and GDP to 3T3 fibroblasts at different concentrations after 24 hours.
Crosslinking of chitosan using GDP occurs due to the electrostatic attractions between the anionic phosphate groups of GDP and the cationic amine groups of chitosan. Another anionic crosslinker used in the art is tripolyphosphate (TPP), which has been widely used to fabricate chitosan nanoparticles, microparticles and fibers (Pati et al., 2011, Carbohyd Res, 346: 2582). The cytotoxicity of GDP was compared to tripolyphosphate (TPP) at concentrations from 0.05 mM to 50 mM using 3T3 fibroblasts.
On the technique in general: Formazan colour is commonly taken as a measure of viable cells.

Data set [2] concerns 3T3 fibroblasts. Conditions: concentrations higher than 5 mM; recent study (Pati et al., 2012); cited from earlier work.

Turning to `Nc1nc2c(ncn2[C@@H]2O[C@H](COP(=O)(O)OP(=O)(O)O)[C@@H](O)[C@H]2O)c(=O)[nH]1` [GDP, Guanosine 5′-Diphosphate], the “cytotoxicity compared to TPP” value in the data set with 3T3 fibroblasts [1] is given as “significantly less cytotoxic”.

On to `O=P(O)(O)OP(=O)(O)OP(=O)(O)O` [TPP, tripolyphosphate], for which, in the data set with 3T3 fibroblasts [2], the cytotoxicity entry was “cytotoxicity of TPP at concentrations higher than 5 mM”.
